# According to patent US12180388B2, “Method of treatment of a surface” (Conopco, Inc., priority 2018, dated 2024):
# Legend:
# Aspergillus brasiliensis = assay: Single-species biofilm (microfouling) growth inhibition, crystal violet biomass; format: cell-based; details: 24 hours, untreated control 1.1
# Experimental: (§1) Fresh stock solution of lactam was prepared at 20 mM in DMSO. Lactam stock was then serially diluted in tissue culture plates in 100% ethanol first ten-fold and subsequently to the desired concentrations. Plates were then left to dry overnight in a fume hood.
# (§2) Single species plates were inoculated with each 1×10^6 bacteria/Aspergillus in marine broth and left for 24 hours. Multispecies plates were inoculated with 1×10^5 S. algae, V. anguillarium V. alginolyticus and 1×10^6 C. marina, A. brasiliensis, P. atlantica, C. lytica in marine broth and left for 24 hours, 48 and 72 hours. Plates were washed twice and left overnight to dry. Crystal violet (0.05% w/v) was added for 20 minutes and destained using 100% ethanol. Biomass was measured by optical density (OD) at 570 nm.
# (§3) In this experiment, the plates were treated with lactam at levels of 0.0312 mM to 2 mM as well as an untreated control. The specific levels of lactam measured were of 0.0312 mM, of 0.0625 mM, of 0.125 mM, of 0.25 mM, of 0.5 mM, 1 mM, and 2 mM. This would equate to levels of from ˜6 ppm ([…]) to 400 ppm (2 mM), and to wt. % of 0.0006 wt. % ([…]) to 0.04 wt. % (2 mM). The lactam was provided in a DMSO/ethanol solvent to the plates. The plate was then inoculated with the marine organism or mixture thereof. The rate of growth of the culture was measured after 24 hours days by optical density.
# Cellulophaga lytica = assay: as above; format: cell-based; details: 24 hours; for Optical Density (570 nm): untreated control 0.7; for lactam concentration with biofilm growth inhibition effect: Cellulophaga lytica
# Experimental: as §1, §2, §3
# Vibrio anguillarium = assay: as above; format: cell-based; details: 24 hours, untreated control 0.5
# Experimental: as §1, §2, §3
# [1] = test system: mixture of the 7 marine organisms (Pseudoalteromonas atlantica, Cellulophaga lytica, Shewanella algae, Cobetia marina, Vibrio anguillarium, Vibrio …); assay: Multispecies biofilm (microfouling) growth inhibition, crystal violet biomass; format: cell-based, mixture of 7 marine organisms; details: for lactam concentration that inhibited biofilm growth: 7 marine organism mixture, 24, 48 and 72 hr
# Experimental: as §2, with “Fresh stock solution of lactam was prepared at 20 mM in DMSO. Lactam stock was then serially diluted in tissue culture plates in 100% ethanol first ten-fold and subsequently to the desired concentrations. Plates were then left to dry overnight in a fume hood. Single” for “Single”
# The marine species were as used for example 2: Shewanella algae, Cobetia marina, Vibrio alginolyticus, or Pseudoalteromonas atlantica, Aspergillus brasiliensis, Vibrio anguillarium, and Cellulophaga lytica. This time they were used in combination as a mixture to better model the marine environment, and the growth inhibition effect of the lactams on the challenging marine organism mixture was tested. This a challenging test as the presence of marine organisms where the lactam didn't have a growth inhibition effect would be expected to lead to biofilm growth. The results are shown in FIGS. 4 and 5 and Tables 2 and 3.
# [2] = 0.0312 mM lactam, 24 hr, untreated control 1.3
# [3] = 0.0312 mM lactam, 48 hr, untreated control 1.8
# [4] = 0.0312 mM lactam, 72 hr, untreated control 1.1
# [5] = 0.0625 mM lactam, 24 hr, untreated control 1.3
# [6] = 0.0625 mM lactam, 48 hr, untreated control 1.8
# [7] = 0.0625 mM lactam, 72 hr, untreated control 1.1
# [8] = 0.125 mM lactam, 24 hr, untreated control 1.3
# [9] = 0.125 mM lactam, 48 hr, untreated control 1.8
# [10] = 0.125 mM lactam, 72 hr, untreated control 1.1
# [11] = 0.25 mM lactam, 24 hr, untreated control 1.3
# [12] = 0.25 mM lactam, 48 hr, untreated control 1.8
# [13] = 0.25 mM lactam, 72 hr, untreated control 1.1
# [14] = 0.5 mM lactam, 24 hr, untreated control 1.3
# [15] = 0.5 mM lactam, 48 hr, untreated control 1.8
# [16] = 0.5 mM lactam, 72 hr, untreated control 1.1
# [17] = 1 mM lactam, 24 hr, untreated control 1.3
# [18] = 1 mM lactam, 48 hr, untreated control 1.8
# [19] = 1 mM lactam, 72 hr, untreated control 1.1
# [20] = 2 mM lactam, 24 hr, untreated control 1.3
# [21] = 2 mM lactam, 48 hr, untreated control 1.8
# [22] = 2 mM lactam, 72 hr, untreated control 1.1
structure (smiles),measurement,setting,value
"C=C1NC(=O)C=C1c1ccc(Cl)cc1 [lactam 488, 4-(4-chlorophenyl)-5-methylene-pyrrol-2-one]",Optical Density (570 nm),Aspergillus brasiliensis; 0.0312 mM lactam,0.5
same,Optical Density (570 nm),Aspergillus brasiliensis; 0.0625 mM lactam,0.6
same,Optical Density (570 nm),Aspergillus brasiliensis; 0.125 mM lactam,0.5
same,Optical Density (570 nm),Aspergillus brasiliensis; 0.25 mM lactam,0.4
same,Optical Density (570 nm),Aspergillus brasiliensis; 0.5 mM lactam,0.6
same,Optical Density (570 nm),Aspergillus brasiliensis; 1 mM lactam,0.5
same,Optical Density (570 nm),Aspergillus brasiliensis; 2 mM lactam,0.4
same,Optical Density (570 nm),Cellulophaga lytica; 0.0312 mM lactam,0.9
same,Optical Density (570 nm),Cellulophaga lytica; 0.0625 mM lactam,0.9
same,Optical Density (570 nm),Cellulophaga lytica; 0.125 mM lactam,0.8
same,Optical Density (570 nm),Cellulophaga lytica; 0.25 mM lactam,0.8
same,Optical Density (570 nm),Cellulophaga lytica; 0.5 mM lactam,0.2
same,Optical Density (570 nm),Cellulophaga lytica; 1 mM lactam,0.2
same,Optical Density (570 nm),Cellulophaga lytica; 2 mM lactam,0.1
same,lactam concentration with biofilm growth inhibition effect,Cellulophaga lytica,> 0.5 mM
same,Optical Density (570 nm),Vibrio anguillarium; 0.0312 mM lactam,0.5
same,Optical Density (570 nm),Vibrio anguillarium; 0.0625 mM lactam,0.6
same,Optical Density (570 nm),Vibrio anguillarium; 0.125 mM lactam,0.7
same,Optical Density (570 nm),Vibrio anguillarium; 0.25 mM lactam,0.6
same,Optical Density (570 nm),Vibrio anguillarium; 0.5 mM lactam,0.2
same,Optical Density (570 nm),Vibrio anguillarium; 1 mM lactam,0.1
same,Optical Density (570 nm),Vibrio anguillarium; 2 mM lactam,0.1
same,Optical Density (570 nm),[1]; [2],1.3
same,Optical Density (570 nm),[1]; [3],1.5
same,Optical Density (570 nm),[1]; [4],1.4
same,Optical Density (570 nm),[1]; [5],1.4
same,Optical Density (570 nm),[1]; [6],1.8
same,Optical Density (570 nm),[1]; [7],1.4
same,Optical Density (570 nm),[1]; [8],1.2
same,Optical Density (570 nm),[1]; [9],1.7
same,Optical Density (570 nm),[1]; [10],1.2
same,Optical Density (570 nm),[1]; [11],1
same,Optical Density (570 nm),[1]; [12],1.3
same,Optical Density (570 nm),[1]; [13],1.0
same,Optical Density (570 nm),[1]; [14],0.6
same,Optical Density (570 nm),[1]; [15],0.6
same,Optical Density (570 nm),[1]; [16],0.4
same,Optical Density (570 nm),[1]; [17],0.3
same,Optical Density (570 nm),[1]; [18],0.2
same,Optical Density (570 nm),[1]; [19],0.1
same,Optical Density (570 nm),[1]; [20],0.1
same,Optical Density (570 nm),[1]; [21],0.1
same,Optical Density (570 nm),[1]; [22],0.1
same,lactam concentration that inhibited biofilm growth,[1],> 0.25 mM
"C=C1NC(=O)C=C1c1ccc(C)cc1 [lactam 491, 5-methylene-4-(p-tolyl)pyrrol-2-one]",Optical Density (570 nm),Aspergillus brasiliensis; 0.0312 mM lactam,0.4
same,Optical Density (570 nm),Aspergillus brasiliensis; 0.0625 mM lactam,0.5
same,Optical Density (570 nm),Aspergillus brasiliensis; 0.125 mM lactam,0.5
same,Optical Density (570 nm),Aspergillus brasiliensis; 0.25 mM lactam,0.5
same,Optical Density (570 nm),Aspergillus brasiliensis; 0.5 mM lactam,0.5
same,Optical Density (570 nm),Aspergillus brasiliensis; 1 mM lactam,0.3
same,Optical Density (570 nm),Aspergillus brasiliensis; 2 mM lactam,0.4
same,Optical Density (570 nm),Cellulophaga lytica; 0.0312 mM lactam,0.9
same,Optical Density (570 nm),Cellulophaga lytica; 0.0625 mM lactam,1.0
same,Optical Density (570 nm),Cellulophaga lytica; 0.125 mM lactam,0.9
same,Optical Density (570 nm),Cellulophaga lytica; 0.25 mM lactam,0.9
same,Optical Density (570 nm),Cellulophaga lytica; 0.5 mM lactam,1.0
same,Optical Density (570 nm),Cellulophaga lytica; 1 mM lactam,0.5
same,Optical Density (570 nm),Cellulophaga lytica; 2 mM lactam,0.6
same,lactam concentration with biofilm growth inhibition effect,Cellulophaga lytica,> 1 mM
same,Optical Density (570 nm),Vibrio anguillarium; 0.0312 mM lactam,0.2
same,Optical Density (570 nm),Vibrio anguillarium; 0.0625 mM lactam,0.7
same,Optical Density (570 nm),Vibrio anguillarium; 0.125 mM lactam,0.7
same,Optical Density (570 nm),Vibrio anguillarium; 0.25 mM lactam,0.3
same,Optical Density (570 nm),Vibrio anguillarium; 0.5 mM lactam,0.4
same,Optical Density (570 nm),Vibrio anguillarium; 1 mM lactam,0.2
same,Optical Density (570 nm),Vibrio anguillarium; 2 mM lactam,0.1
same,Optical Density (570 nm),[1]; [2],1.2
same,Optical Density (570 nm),[1]; [3],1.7
same,Optical Density (570 nm),[1]; [4],1.3
same,Optical Density (570 nm),[1]; [5],1.1
same,Optical Density (570 nm),[1]; [6],1.8
same,Optical Density (570 nm),[1]; [7],1.2
same,Optical Density (570 nm),[1]; [8],0.9
same,Optical Density (570 nm),[1]; [9],1.6
same,Optical Density (570 nm),[1]; [10],1.0
same,Optical Density (570 nm),[1]; [11],0.9
same,Optical Density (570 nm),[1]; [12],1.4
same,Optical Density (570 nm),[1]; [13],0.9
same,Optical Density (570 nm),[1]; [14],1.0
same,Optical Density (570 nm),[1]; [15],1.2
same,Optical Density (570 nm),[1]; [16],0.9
same,Optical Density (570 nm),[1]; [17],0.7
same,Optical Density (570 nm),[1]; [18],1.3
same,Optical Density (570 nm),[1]; [19],1.2
same,Optical Density (570 nm),[1]; [20],0.2
same,Optical Density (570 nm),[1]; [21],0.2
same,Optical Density (570 nm),[1]; [22],0.3
same,lactam concentration that inhibited biofilm growth,[1],> 0.25 mM
